Source: US20190336610A1, “GLUCOSE-SENSITIVE PEPTIDE HORMONES” (GUBRA APS, priority 2016, published 2019)
Each block holds one compound with its values, some of them ahead of it.

Columns and labels:
[1] = In vitro glucose sensing at different glucose concentration (UPLC-MS, formation of linker-glucose); format: physicochemical; details: 0.42 mM linker, PBS pH 7.4, 37° C.
Experimental: The aim with the example is to evaluate the reaction rate of three different linkers at various glucose concentrations i.e. their ability to hydrolyse and react with glucose to form a linker glucose conjugate.
1.4 mg of linker 1 ((E)-N′-(3-(benzyloxy)propylidene)-4-methoxybenzohydrazide) was dissolved in 100 μL DMSO. 10 μL of the DMSO stock solution was added to 990 μL 1×PBS buffer pH 7.4, containing 1000 or 5000 equiv glucose, to give a final concentration of 0.42 mM of linker 1. The solutions were heated to 37° C. and analysed at different time points from 0 to 48 h by UPLC-MS (C18 column, acetonitrile/water/formic acid). The linker-glucose compound was analysed as percentage of the full conversion of the reaction.
1.3 mg and 1.4 mg of linker 14 ((E)-N′-(2-(benzyloxy)ethylidene)-4-methoxybenzohydrazide) and linker 15 ((E)-N′-(2-(benzyloxy)ethylidene)-2-hydroxy-4-methoxybenzohydrazide), respectively, was dissolved in 100 μL DMSO. 10 μL of each stock solution was added to 990 μL 1×PBS buffer pH 7.4 containing 1000, 5000 or 10,000 equiv glucose, to give a final linker concentration of 0.42 mM. The solutions were heated to 37° C. and analysed at different time points from 0 to 72 h by UPLC-MS (C18 column, acetonitrile/water/formic acid). The linker-glucose compounds were analysed as percentage of the full conversion of the reaction.

[2] = In vitro glucose sensing evaluation (LC-MS): reactivity of each linker towards glucose; format: physicochemical; details: phosphate buffer pH 7, 1000 equiv glucose, 37° C.
Experimental: The aim with this example is to evaluate the reactivity of each linker towards glucose.
1-1.5 mg of linker was dissolved in 100 μL DMSO. Immediately after solvation, 5 μL was added to 995 μL phosphate buffer pH 7 containing 1000 equiv glucose. The mixture was heated to 37° C. and analysed continuously by LC-MS

lean rats = test: In vivo scITT in lean rats; details: s.c., 5 U insulin-C18 or 0.5 U human insulin

% linker-glucose ([1]; 1000 equiv glucose, 0 h): 0%
% linker-glucose ([1]; 1000 equiv glucose, 1.5 h): 3%
% linker-glucose ([1]; 1000 equiv glucose, 2 h): 3%
% linker-glucose ([1]; 1000 equiv glucose, 3 h): 5%
% linker-glucose ([1]; 1000 equiv glucose, 3.17 h): 4%
% linker-glucose ([1]; 1000 equiv glucose, 3.5 h): 4%
% linker-glucose ([1]; 1000 equiv glucose, 3.75 h): 4%
% linker-glucose ([1]; 1000 equiv glucose, 4 h): 5%
% linker-glucose ([1]; 1000 equiv glucose, 4.5 h): 6%
% linker-glucose ([1]; 1000 equiv glucose, 4.75 h): 6%
% linker-glucose ([1]; 1000 equiv glucose, 5 h): 6%
% linker-glucose ([1]; 1000 equiv glucose, 5.5 h): 6%
% linker-glucose ([1]; 1000 equiv glucose, 6 h): 9%
% linker-glucose ([1]; 1000 equiv glucose, 7 h): 9%
% linker-glucose ([1]; 1000 equiv glucose, 24 h): 29%
% linker-glucose ([1]; 1000 equiv glucose, 48 h): 70%
% linker-glucose ([1]; 5000 equiv glucose, 0 h): 0%
% linker-glucose ([1]; 5000 equiv glucose, 0.75 h): 3%
% linker-glucose ([1]; 5000 equiv glucose, 1 h): 6%
% linker-glucose ([1]; 5000 equiv glucose, 1.25 h): 7%
% linker-glucose ([1]; 5000 equiv glucose, 1.5 h): 10%
% linker-glucose ([1]; 5000 equiv glucose, 1.75 h): 10%
% linker-glucose ([1]; 5000 equiv glucose, 2 h): 14%
% linker-glucose ([1]; 5000 equiv glucose, 2.5 h): 18%
% linker-glucose ([1]; 5000 equiv glucose, 7 h): 49%
Compound: COc1ccc(C(=O)N/N=C/CCOCc2ccccc2)cc1 [Linker 1, (E)-N′-(3-(benzyloxy)propylidene)-4-methoxybenzohydrazide]

% linker-glucose ([1]; 1000 equiv glucose, 0 h): 0%
% linker-glucose ([1]; 1000 equiv glucose, 24 h): 7%
% linker-glucose ([1]; 1000 equiv glucose, 54 h): 11%
% linker-glucose ([1]; 1000 equiv glucose, 72 h): 17%
% linker-glucose ([1]; 5000 equiv glucose, 0 h): 0%
% linker-glucose ([1]; 5000 equiv glucose, 24 h): 16%
% linker-glucose ([1]; 5000 equiv glucose, 54 h): 30%
% linker-glucose ([1]; 5000 equiv glucose, 72 h): 50%
% linker-glucose ([1]; 10,000 equiv glucose, 0 h): 0%
% linker-glucose ([1]; 10,000 equiv glucose, 6 h): 3%
% linker-glucose ([1]; 10,000 equiv glucose, 24 h): 39%
% linker-glucose ([1]; 10,000 equiv glucose, 54 h): 62%
% linker-glucose ([1]; 10,000 equiv glucose, 72 h): 87%
Compound: COc1ccc(C(=O)N/N=C/COCc2ccccc2)cc1 [Linker 14, (E)-N′-(2-(benzyloxy)ethylidene)-4-methoxybenzohydrazide]

Linker-glucose observed [2]: ≤ 5 h
% linker-glucose ([1]; 1000 equiv glucose, 0 h): 0%
% linker-glucose ([1]; 1000 equiv glucose, 2 h): 1%
% linker-glucose ([1]; 1000 equiv glucose, 4 h): 3%
% linker-glucose ([1]; 1000 equiv glucose, 6 h): 5%
% linker-glucose ([1]; 1000 equiv glucose, 24 h): 21%
% linker-glucose ([1]; 1000 equiv glucose, 48 h): 35%
% linker-glucose ([1]; 5000 equiv glucose, 0 h): 0%
% linker-glucose ([1]; 5000 equiv glucose, 1 h): 2%
% linker-glucose ([1]; 5000 equiv glucose, 2 h): 6%
% linker-glucose ([1]; 5000 equiv glucose, 4 h): 12%
% linker-glucose ([1]; 5000 equiv glucose, 6 h): 21%
% linker-glucose ([1]; 5000 equiv glucose, 24 h): 68%
% linker-glucose ([1]; 5000 equiv glucose, 48 h): 98%
% linker-glucose ([1]; 10,000 equiv glucose, 0 h): 0%
% linker-glucose ([1]; 10,000 equiv glucose, 1 h): 9%
% linker-glucose ([1]; 10,000 equiv glucose, 2 h): 15%
% linker-glucose ([1]; 10,000 equiv glucose, 4 h): 33%
% linker-glucose ([1]; 10,000 equiv glucose, 6 h): 44%
% linker-glucose ([1]; 10,000 equiv glucose, 24 h): 89%
% linker-glucose ([1]; 10,000 equiv glucose, 48 h): 99%
Compound: COc1ccc(C(=O)N/N=C/COCc2ccccc2)c(O)c1 [Linker 15, (E)-N′-(2-(benzyloxy)ethylidene)-2-hydroxy-4-methoxybenzohydrazide]

Compound: Human insulin: human insulin, the unmodified peptide hormone used as comparator
Blood glucose % of vehicle (±SEM) (lean rats; 0 min (before)): 95 ± 3%
Blood glucose % of vehicle (±SEM) (lean rats; 60 min): 64 ± 4%
Blood glucose % of vehicle (±SEM) (lean rats; 120 min): 55 ± 6%
Blood glucose % of vehicle (±SEM) (lean rats; 180 min): 66 ± 7%
Blood glucose % of vehicle (±SEM) (lean rats; 240 min): 76 ± 4%
Blood glucose % of vehicle (±SEM) (lean rats; 300 min): 76 ± 4%
